Reference: ChEMBL document CHEMBL6127079, “Design and synthesis of spiro[pyrrolidine-3,3'-quinoline]-2,2'-dione derivatives as novel antifungal agents targeting chitin synthase” (Eur J Med Chem, 2024)
pIC50, pKi: −log10 of the molar value. ≈ marks a conversion by molar mass, not a printed value. Calls of active or inactive are those of the source. No cut-off for these calls is given here.

Tests used:
[1] = tested on: Cryptococcus neoformans; assay: Antifungal activity against fluconazole-resistant Cryptococcus neoformans ATCC 32719 assessed as inhibition of fungal growth incubated for 24 to 72 hrs; type: functional; conditions: time 24-72 hrs
[2] = tested on: Aspergillus fumigatus; assay: Synergistic antifungal activity against Aspergillus fumigatus GIMCC 3.19 assessed as fractional inhibitory concentration index in presence of Polyoxin B incubated for 24 hrs by half broth dilution based checkerboard method; type: functional
[3] = tested on: Aspergillus flavus; assay: Antifungal activity against drug-resistant Aspergillus flavus ATCC 16870 assessed as inhibition of cell wall synthesis in presence of sorbitol incubated for 24 hrs; type: functional
[4] = Non-competitive inhibition of chitin synthase extracted from Candida tropicalis ATCC 750 using UDP-GlcNAc as substrate assessed as inhibition constant by Lineweaver-Burk plot analysis
[5] = tested on: Cryptococcus neoformans; assay: Antifungal activity against Cryptococcus neoformans ATCC 32719 incubated for 24 hrs by half broth dilution based checkerboard method; type: functional
[6] = tested on: Candida albicans; assay: Synergistic antifungal activity against Candida albicans ATCC 76615 assessed as fractional inhibitory concentration index in presence of Polyoxin B incubated for 24 hrs by half broth dilution based checkerboard method; type: functional
[7] = tested on: Aspergillus flavus; assay: Antifungal activity against Aspergillus flavus ATCC 16870 assessed as fluconazole MIC incubated for 24 hrs in presence of fluconazole by half broth dilution based checkerboard method; type: functional
[8] = tested on: A549; assay: Cytotoxicity against human A549 cells assessed as reduction in cell viability at 32 microg/ml incubated for 24 hrs by CCK-8 assay relative to control; type: toxicity, cell-based; conditions: a549, 24 h, at 32 µg/mL
[9] = tested on: Candida tropicalis; assay: Inhibition of chitin synthase extracted from Candida tropicalis ATCC 750 using UDP-GlcNAc as substrate assessed as inhibition rate at 300 ug/ml by TMB based microplate analyzer relative to control; conditions: dose 300.0 µg/ml
[10] = tested on: Aspergillus fumigatus; assay: Antifungal activity against Aspergillus fumigatus GIMCC 3.19 assessed as inhibition of growth incubated for 24 hrs by two-fold serial dilution method; type: functional
[11] = tested on: A549; assay: Cytotoxicity against human A549 cells assessed as reduction in cell viability at 8 microg/ml incubated for 24 hrs by CCK-8 assay relative to control; type: toxicity, cell-based; conditions: a549, 24 h, at 8 µg/mL
[12] = tested on: Aspergillus fumigatus; assay: Antifungal activity against drug-resistant Aspergillus fumigatus GIMCC 3.19 assessed as inhibition of cell wall synthesis in presence of sorbitol incubated for 24 hrs; type: functional
[13] = tested on: Aspergillus flavus; assay: Antifungal activity against Aspergillus flavus ATCC 16870 assessed as inhibition of growth incubated for 24 hrs by two-fold serial dilution method; type: functional
[14] = tested on: A549; assay: Cytotoxicity against human A549 cells assessed as reduction in cell viability at 16 microg/ml incubated for 24 hrs by CCK-8 assay relative to control; type: toxicity, cell-based; conditions: a549, 24 h, at 16 µg/mL
[15] = tested on: Aspergillus fumigatus; assay: Antifungal activity against fluconazole-resistant Aspergillus fumigatus GIMCC 3.19 assessed as inhibition of fungal growth incubated for 24 to 72 hrs; type: functional; conditions: time 24-72 hrs
[16] = Inhibition of chitin synthase extracted from Candida tropicalis ATCC 750 using UDP-GlcNAc as substrate assessed as inhibition rate by TMB based microplate analyzer relative to control
[17] = tested on: A549; assay: Cytotoxicity against human A549 cells assessed as reduction in cell viability at 64 microg/ml incubated for 24 hrs by CCK-8 assay relative to control; type: toxicity, cell-based; conditions: a549, 24 h, at 64 µg/mL
[18] = tested on: Cryptococcus neoformans; assay: Antifungal activity against drug-resistant Cryptococcus neoformans ATCC 32719 assessed as inhibition of cell wall synthesis in presence of sorbitol incubated for 24 hrs; type: functional
[19] = tested on: Aspergillus flavus; assay: Antifungal activity against Aspergillus flavus ATCC 16870 assessed as Polyoxin B MIC incubated for 24 hrs in presence of fluconazole by half broth dilution based checkerboard method; type: functional
[20] = tested on: Candida albicans; assay: Antifungal activity against Candida albicans ATCC 76615 assessed as inhibition of growth incubated for 24 hrs by two-fold serial dilution method; type: functional
[21] = tested on: Aspergillus fumigatus; assay: Antifungal activity against Aspergillus fumigatus GIMCC 3.19 incubated for 24 hrs by half broth dilution based checkerboard method; type: functional
[22] = tested on: Cryptococcus neoformans; assay: Antifungal activity against Cryptococcus neoformans ATCC 32719 assessed as fluconazole MIC incubated for 24 hrs in presence of fluconazole by half broth dilution based checkerboard method; type: functional
[23] = tested on: Aspergillus flavus; assay: Antifungal activity against fluconazole-resistant Aspergillus flavus ATCC 16870 assessed as inhibition of fungal growth incubated for 24 to 72 hrs; type: functional; conditions: time 24-72 hrs
[24] = tested on: Candida tropicalis; assay: Non-competitive inhibition of chitin synthase extracted from Candida tropicalis ATCC 750 using UDP-GlcNAc as substrate assessed as decrease in Vm with constant Km at 0 to 0.15 mM by Lineweaver-Burk plot analysis; conditions: dose 0-0.15 mM
[25] = tested on: Aspergillus fumigatus; assay: Antifungal activity against Aspergillus fumigatus GIMCC 3.19 assessed as Polyoxin B MIC incubated for 24 hrs in presence of fluconazole by half broth dilution based checkerboard method; type: functional
[26] = tested on: Cryptococcus neoformans; assay: Synergistic antifungal activity against Cryptococcus neoformans ATCC 32719 assessed as fractional inhibitory concentration index in presence of Polyoxin B incubated for 24 hrs by half broth dilution based checkerboard method; type: functional
[27] = tested on: Aspergillus flavus; assay: Antifungal activity against Aspergillus flavus ATCC 16870 incubated for 24 hrs by half broth dilution based checkerboard method; type: functional
[28] = tested on: Aspergillus flavus; assay: Synergistic antifungal activity against Aspergillus flavus ATCC 16870 assessed as fractional inhibitory concentration index in presence of Polyoxin B incubated for 24 hrs by half broth dilution based checkerboard method; type: functional
[29] = tested on: Candida albicans; assay: Antifungal activity against Candida albicans ATCC 76615 incubated for 24 hrs by half broth dilution based checkerboard method; type: functional
[30] = tested on: Candida albicans; assay: Antifungal activity against Candida albicans ATCC 76615 assessed as Polyoxin B MIC incubated for 24 hrs in presence of fluconazole by half broth dilution based checkerboard method; type: functional
[31] = tested on: Candida albicans; assay: Antifungal activity against micafungin-resistant Candida albicans ATCC 76615 assessed as inhibition of fungal growth incubated for 24 to 72 hrs; type: functional; conditions: time 24-72 hrs
[32] = tested on: Candida albicans; assay: Antifungal activity against Candida albicans ATCC 76615 assessed as fluconazole MIC incubated for 24 hrs in presence of fluconazole by half broth dilution based checkerboard method; type: functional
[33] = tested on: Candida albicans; assay: Antifungal activity against drug-resistant Candida albicans ATCC 76615 assessed as inhibition of cell wall synthesis in presence of sorbitol incubated for 24 hrs; type: functional
[34] = tested on: A549; assay: Cytotoxicity against human A549 cells assessed as reduction in cell viability at 4 microg/ml incubated for 24 hrs by CCK-8 assay relative to control; type: toxicity, cell-based; conditions: a549, 24 h, at 4 µg/mL
[35] = tested on: Candida albicans; assay: Antifungal activity against fluconazole-resistant Candida albicans ATCC 76615 assessed as inhibition of fungal growth incubated for 24 to 72 hrs; type: functional; conditions: time 24-72 hrs
[36] = tested on: Aspergillus fumigatus; assay: Synergistic antifungal activity against Aspergillus fumigatus GIMCC 3.19 assessed as fractional inhibitory concentration index in presence of fluconazole incubated for 24 hrs by half broth dilution based checkerboard method; type: functional
[37] = tested on: Aspergillus flavus; assay: Synergistic antifungal activity against Aspergillus flavus ATCC 16870 assessed as fractional inhibitory concentration index in presence of fluconazole incubated for 24 hrs by half broth dilution based checkerboard method; type: functional
[38] = tested on: Candida albicans; assay: Synergistic antifungal activity against Candida albicans ATCC 76615 assessed as fractional inhibitory concentration index in presence of fluconazole incubated for 24 hrs by half broth dilution based checkerboard method; type: functional
[39] = tested on: Cryptococcus neoformans; assay: Synergistic antifungal activity against Cryptococcus neoformans ATCC 32719 assessed as fractional inhibitory concentration index in presence of fluconazole incubated for 24 hrs by half broth dilution based checkerboard method; type: functional
[40] = tested on: Cryptococcus neoformans; assay: Antifungal activity against Cryptococcus neoformans ATCC 32719 assessed as Polyoxin B MIC incubated for 24 hrs in presence of fluconazole by half broth dilution based checkerboard method; type: functional
[41] = tested on: A549; assay: Cytotoxicity against human A549 cells assessed as reduction in cell viability at 128 microg/ml incubated for 24 hrs by CCK-8 assay relative to control; type: toxicity, cell-based; conditions: a549, 24 h, at 128 µg/mL
[42] = tested on: Aspergillus fumigatus; assay: Antifungal activity against Aspergillus fumigatus GIMCC 3.19 assessed as fluconazole MIC incubated for 24 hrs in presence of fluconazole by half broth dilution based checkerboard method; type: functional
[43] = tested on: Cryptococcus neoformans; assay: Antifungal activity against Cryptococcus neoformans ATCC 32719 assessed as inhibition of growth incubated for 24 hrs by two-fold serial dilution method; type: functional

O=C(/C=C/C(=O)Nc1nc2ccccc2s1)Nc1ccc2c(c1)NC(=O)C1(CCNC1=O)C2 (racemic)
MIC [1]: 64 µg/mL (≈ 139 µM)
fractional inhibitory concentration index (FICI) [2]: 1.5
MIC [3]: 128 µg/mL
pKi [4]: 3.94
MIC [5]: 2 µg/mL
fractional inhibitory concentration index (FICI) [6]: 0.5
MIC [7]: 2 µg/mL
Activity [8]: 87.9%
inhibition [9]: 82.5%
MIC [10]: 4 µg/mL (≈ 8.67 µM)
Activity [11]: 90.5%
MIC [12]: 64 µg/mL
MIC [13]: 16 µg/mL (≈ 34.7 µM)
Activity [14]: 91.1%
MIC [15]: 32 µg/mL (≈ 69.3 µM)
pIC50 [16]: 3.98
Activity [17]: 79.1%
MIC [18]: 64 µg/mL
MIC [19]: 8 µg/mL
MIC [20]: 8 µg/mL (≈ 17.3 µM)
MIC [21]: 2 µg/mL
MIC [22]: 4 µg/mL
MIC [23]: 32 µg/mL (≈ 69.3 µM)
inhibition [24]: Active
MIC [25]: 2 µg/mL
fractional inhibitory concentration index (FICI) [26]: 1
MIC [27]: 4 µg/mL
fractional inhibitory concentration index (FICI) [28]: 0.75
MIC [29]: 2 µg/mL
MIC [30]: 2 µg/mL
MIC [31]: 64 µg/mL (≈ 139 µM)
MIC [32]: 2 µg/mL
MIC [33]: 128 µg/mL
Activity [34]: 93.5%
MIC [35]: 64 µg/mL (≈ 139 µM)
fractional inhibitory concentration index (FICI) [36]: 1.5
fractional inhibitory concentration index (FICI) [37]: 0.75
fractional inhibitory concentration index (FICI) [38]: 0.5
fractional inhibitory concentration index (FICI) [39]: 1
MIC [40]: 4 µg/mL
Activity [41]: 68.4%
MIC [42]: 4 µg/mL
MIC [43]: 4 µg/mL (≈ 8.67 µM)

Cc1cc([N+](=O)[O-])ccc1NC(=O)C1CCN(CC(=O)Nc2ccc3c(c2)NC(=O)C2(CCNC2=O)C3)CC1 (racemic)
MIC [1]: 64 µg/mL (≈ 120 µM)
fractional inhibitory concentration index (FICI) [2]: 2
MIC [3]: 256 µg/mL
pKi [4]: 3.97
MIC [5]: 8 µg/mL
fractional inhibitory concentration index (FICI) [6]: 0.625
MIC [7]: 0.625 µg/mL
Activity [8]: 91.9%
inhibition [9]: 85.2%
MIC [10]: 16 µg/mL (≈ 29.9 µM)
Activity [11]: 93.8%
MIC [12]: 128 µg/mL
MIC [13]: 16 µg/mL (≈ 29.9 µM)
Activity [14]: 92.2%
MIC [15]: 32 µg/mL (≈ 59.9 µM)
pIC50 [16]: 4.03
Activity [17]: 87.6%
MIC [18]: 512 µg/mL
MIC [19]: 16 µg/mL
MIC [20]: 8 µg/mL (≈ 15 µM)
MIC [21]: 16 µg/mL
MIC [22]: 1.5 µg/mL
MIC [23]: 32 µg/mL (≈ 59.9 µM)
inhibition [24]: Active
MIC [25]: 16 µg/mL
fractional inhibitory concentration index (FICI) [26]: 1.5
MIC [27]: 16 µg/mL
fractional inhibitory concentration index (FICI) [28]: 0.75
MIC [29]: 8 µg/mL
MIC [30]: 8 µg/mL
MIC [31]: 64 µg/mL (≈ 120 µM)
MIC [32]: 1.25 µg/mL
MIC [33]: 256 µg/mL
Activity [34]: 97.1%
MIC [35]: 64 µg/mL (≈ 120 µM)
fractional inhibitory concentration index (FICI) [36]: 2
fractional inhibitory concentration index (FICI) [37]: 1.5
fractional inhibitory concentration index (FICI) [38]: 1
fractional inhibitory concentration index (FICI) [39]: 0.75
MIC [40]: 8 µg/mL
Activity [41]: 73.5%
MIC [42]: 0.75 µg/mL
MIC [43]: 8 µg/mL (≈ 15 µM)
